18 compounds from patent publication EP4737451A1 (Dong Wha Pharm. Co., Ltd., priority 2023, dated 2025) can be followed below.

In experiment [1] the target is T1, IRAK1 enzyme (Homo sapiens, UniProt P51617).
T1 construct: purchased Promega VA7477
As to the kind of experiment: IRAK1 enzyme activity inhibition (ADP-Glo, Promega kit). The settings on record: for inhibition at 0.1 µM: test compound 0.1 uM. In kind it is biochemical. How it is done:
An experiment on IRAK1 enzyme activity inhibition of the compound of the present invention was conducted.
An IRAK1 enzyme kit (purchased from Promega, product number: VA7477) was used to dilute a mixed solution between 0.1 µg/µL of protein kinase B (AKT), which is an enzyme-reactive substrate, and 1.25 mM of ATP with a reaction buffer (40 mM Tris-HCl, pH 7.5; 20 mM MgCl2; 0.1 mg/mL BSA; 50 µM DTT) according to the instructions, so as to dispense 2 µL in a 384-well white plate, and then to add 1 µL of a test compound, which was gradient diluted starting from 1 mM, to a 384-well white plate. After that, an IRAK1 enzyme was diluted with a reaction buffer to a final concentration of 5 ng/µL, then 2 µL/well was dispensed into a 384-well white plate and reacted at 37°C for 60 minutes. After completion of a reaction, an ADP-GloTM enzyme test kit (purchased from Promega, product number: V9102) was used to add 5 µL of ADP-Glo reaction reagent and cause a reaction at 37°C for 40 minutes, and then 10 µL of enzyme chromogenic reagent was added again to measure a luminescence signal using equipment for measuring absorbance (THECAN, Microplate Reader). An activity inhibition rate was calculated from a measured value, and a 50% inhibition concentration (IC50 value) was analyzed through a non-linear regression analysis based on the % inhibition for each concentration of the test compound, and is shown in Table 3.

The target in experiment [2] is T2, IRAK4 enzyme (Homo sapiens, UniProt Q9NWZ3).
T2 construct: purchased Promega V2621
T2 sequence (Q9NWZ3 1-460): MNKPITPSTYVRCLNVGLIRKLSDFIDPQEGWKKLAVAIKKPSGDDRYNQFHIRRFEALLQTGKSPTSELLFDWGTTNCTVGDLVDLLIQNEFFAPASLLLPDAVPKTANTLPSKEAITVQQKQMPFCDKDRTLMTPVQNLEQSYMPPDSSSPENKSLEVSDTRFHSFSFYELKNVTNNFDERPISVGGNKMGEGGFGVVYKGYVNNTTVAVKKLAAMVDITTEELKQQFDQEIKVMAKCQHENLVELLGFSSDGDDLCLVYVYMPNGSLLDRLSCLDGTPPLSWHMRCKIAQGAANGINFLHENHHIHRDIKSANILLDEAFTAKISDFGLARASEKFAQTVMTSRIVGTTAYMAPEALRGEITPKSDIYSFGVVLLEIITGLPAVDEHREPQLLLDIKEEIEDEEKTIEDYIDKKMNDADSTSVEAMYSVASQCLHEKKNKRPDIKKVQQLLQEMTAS
Description: IRAK4 enzyme activity inhibition (ADP-Glo, Promega kit). In kind it is biochemical. How it is done: An experiment on IRAK4 enzyme activity inhibition of the compound of the present invention was conducted.
An IRAK4 enzyme kit (purchased from Promega, product number: V2621) was used to dilute a mixed solution between 0.1 µg/µL of myelin basic protein (MBP), which is an enzyme-reactive substrate, and 1.25 mM of ATP with a reaction buffer (40 mM Tris-HCl, pH 7.5; 20 mM MgCl2; 0.1 mg/mL BSA; 50 µM DTT) according to the instructions, so as to dispense 2 µL in a 384-well white plate, and then to add 1 µL of a test compound, which was gradient diluted starting from 1 mM, to a 384-well plate. After that, an IRAK4 enzyme was diluted with a reaction buffer to a final concentration of 5 ng/µL, then 2 µL/well was dispensed into a 384-well white plate and reacted at 37°C for 60 minutes. After completion of a reaction, an ADP-GloTM enzyme test kit (purchased from Promega, product number: V9102) was used to add 5 µL of ADP-Glo reaction reagent and cause a reaction at 37°C for 40 minutes, and then 10 µL of enzyme chromogenic reagent was added again to measure a luminescence signal using equipment for measuring absorbance (THECAN, Microplate Reader). An activity inhibition rate was calculated from a measured value, and a 50% inhibition concentration (IC50 value) was analyzed through a non-linear regression analysis based on the % inhibition for each concentration of the test compound, and is shown in Table 2.

T1 sequence (P51617 whole entry): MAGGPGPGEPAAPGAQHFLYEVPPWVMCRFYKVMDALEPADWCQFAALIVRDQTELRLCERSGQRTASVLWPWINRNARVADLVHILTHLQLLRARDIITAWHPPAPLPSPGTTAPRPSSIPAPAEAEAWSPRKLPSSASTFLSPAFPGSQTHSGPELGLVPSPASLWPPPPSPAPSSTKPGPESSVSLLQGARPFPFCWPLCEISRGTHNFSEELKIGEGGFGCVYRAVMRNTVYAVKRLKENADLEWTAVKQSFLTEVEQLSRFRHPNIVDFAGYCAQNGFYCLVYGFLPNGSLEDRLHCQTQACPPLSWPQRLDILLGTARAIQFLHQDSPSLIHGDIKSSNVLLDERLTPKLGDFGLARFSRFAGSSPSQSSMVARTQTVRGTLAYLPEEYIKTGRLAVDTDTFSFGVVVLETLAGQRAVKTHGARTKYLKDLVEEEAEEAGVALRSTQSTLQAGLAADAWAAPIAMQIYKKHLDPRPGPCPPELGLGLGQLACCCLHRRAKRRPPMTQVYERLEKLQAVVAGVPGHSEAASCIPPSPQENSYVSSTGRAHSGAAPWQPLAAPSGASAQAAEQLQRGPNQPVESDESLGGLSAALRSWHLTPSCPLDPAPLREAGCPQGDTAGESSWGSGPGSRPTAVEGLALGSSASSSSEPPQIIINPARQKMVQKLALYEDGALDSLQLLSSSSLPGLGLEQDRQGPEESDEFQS

“N-(1-(3-hydroxy-3-methylbutyl)-6-morpholino-1H-indazol-5-yl)-3-nitrobenzamide [Example 28]”: in experiment [1] (test compound 1 uM), the “IRAK1 %enzyme inhibition (1 uM)” value stood at 9.10%. Moreover, the “IRAK4 %enzyme inhibition (0.1 uM)” value in experiment [2] (test compound 0.1 uM) worked out at 56.1%. For the same compound, the “IRAK4 %enzyme inhibition (1 uM)” value in experiment [2] (test compound 1 uM) is given as 89.9%.

As to `CC(C)(O)CCn1cc2cc(NC(=O)c3cccc([N+](=O)[O-])c3)c(-c3ccc(N4CCOCC4)cc3)cc2n1` [Example 37, N-(2-(3-hydroxy-3-methylbutyl)-6-(4-morpholinophenyl)-2H-indazol-5-yl)-3-nitrobenzamide], the inhibition at 0.1 µM in experiment [1] stood at 26.3%; in experiment [2] (test compound 0.1 uM) it was 52.2%. Further, 1 µM produced 31% inhibition in experiment [1] (test compound 1 uM).

For the compound `O=C(Nc1cc2cn(CCN3CCOCC3)nc2cc1N1CCOCC1)c1cccc([N+](=O)[O-])c1` [Example 19, N-(6-morpholino-2-(2-morpholinoethyl)-2H-indazol-5-yl)-3-nitrobenzamide], the inhibition at 1 µM in experiment [1] (test compound 1 uM) was determined as 38.7%; in experiment [2] (test compound 1 uM) it was 90.1%. Further, the IC50 in experiment [2] came to 31.7 nM. This compound also returned an inhibition at 0.1 µM in experiment [2] (test compound 0.1 uM) of 84.7%.

In the case of `CC(C)(O)CCn1cc2cc(NC(=O)c3ccc(F)c([N+](=O)[O-])c3)c(N3CCOCC3)cc2n1` [Example 26, 4-fluoro-N-(2-(3-hydroxy-3-methylbutyl)-6-morpholino-2H-indazol-5-yl)-3-nitrobenzamide], the inhibition at 0.1 µM in experiment [1] was 31.7%; in experiment [2] (test compound 0.1 uM), 71.3%. In experiment [1] (test compound 1 uM), this compound returned an inhibition at 1 µM of 40.2%. For the same compound, the half-maximal inhibitory concentration (IC50) in experiment [2] was determined as 192 nM.

Consider `CC(C)(O)CCn1cc2cc(NC(=O)c3cccc([N+](=O)[O-])c3)c(N3CCSCC3)cc2n1` [Example 40, N-(2-(3-hydroxy-3-methylbutyl)-6-thiomorpholino-2H-indazol-5-yl)-3-nitrobenzamide], for which the inhibition at 0.1 µM worked out at 6.5% in experiment [1] and 69.7% in experiment [2] (test compound 0.1 uM). Besides, in experiment [1] (test compound 1 uM), 1 µM produced 11.2% inhibition.

As to `COC(=O)CCNC(=O)c1cncc(-c2cc3nn(CCC(C)(C)O)cc3cc2NC(=O)c2cccc(S(N)(=O)=O)c2)c1` [Example 48, Methyl 3-(5-(2-(3-hydroxy-3-methylbutyl)-5-(3-sulfamoylbenzamido)-2H-indazol-6-yl)nicotinamido)propanoate], the inhibition at 0.1 µM was determined as 39.7% in experiment [1] and 56.7% in experiment [2] (test compound 0.1 uM).

Consider `CNC(=O)[C@@H](C)NC(=O)c1cncc(-c2cc3nn(CCC(C)(C)O)cc3cc2NC(=O)c2cccc(S(N)(=O)=O)c2)c1` [Example 51, (R)-5-(2-(3-hydroxy-3-methylbutyl)-5-(3-sulfamoylbenzamido)-2H-indazol-6-yl)-N-(1-(methylamino)-1-oxopropan-2-yl)nicotinamide], for which the inhibition at 0.1 µM in experiment [1] was determined as 0%; in experiment [2] (test compound 0.1 uM), 48.8%.

`CC(C)(O)CCn1cc2cc(NC(=O)c3cccc(S(N)(=O)=O)c3)c(-c3ccc(C(N)=O)cc3)cc2n1` [Example 46, N-(6-(4-carbamoylphenyl)-2-(3-hydroxy-3-methylbutyl)-2H-indazol-5-yl)-3-sulfamoylbenzamide]: the inhibition at 0.1 µM in experiment [1] is 3.2%; in experiment [2] (test compound 0.1 uM) it was 57.5%.

For `CC(C)(O)CCn1cc2cc(NC(=O)c3cccc(C(N)=O)c3)c(-c3ccc(C(=O)NCc4ccoc4)cc3)cc2n1` [Example 49, N-(6-(4-((furan-3-ylmethyl)carbamoyl)phenyl)-2-(3-hydroxy-3-methylbutyl)-2H-indazol-5-yl)isophthalamide], the results for the inhibition at 0.1 µM in experiment [1] and in experiment [2] (test compound 0.1 uM) were 27.7% and 55.4%, respectively. This compound displayed an inhibition at 1 µM in experiment [1] (test compound 1 uM) of 31.6%.

In the case of `CC(C)(O)CCn1cc2cc(NC(=O)c3cccc([N+](=O)[O-])c3)c(-c3ccc(C(=O)NCC(N)=O)cc3)cc2n1` [Example 43, N-(6-(4-((2-amino-2-oxoethyl)carbamoyl)phenyl)-2-(3-hydroxy-3-methylbutyl)-2H-indazol-5-yl)-3-nitrobenzamide], the inhibition at 0.1 µM in experiment [1] was determined as 1.7%; in experiment [2] (test compound 0.1 uM), 63%.

In the case of `CNC(=O)CNC(=O)c1ccc(-c2cc3nn(CCC(C)(C)O)cc3cc2NC(=O)c2cccc([N+](=O)[O-])c2)cc1` [Example 41, N-(2-(3-hydroxy-3-methylbutyl)-6-(4-((2-(methylamino)-2-oxoethyl)carbamoyl)phenyl)-2H-indazol-5-yl)-3-nitrobenzamide], the figures for the inhibition at 0.1 µM in experiment [1] and in experiment [2] (test compound 0.1 uM) were 0.4% and 69%, respectively.

Turning to `O=C(Nc1cc2cn(CCN3CCOCC3)nc2cc1-c1ccc(F)cc1)c1cccc([N+](=O)[O-])c1` [Example 34, N-(6-(4-fluorophenyl)-2-(2-morpholinoethyl)-2H-indazol-5-yl)-3-nitrobenzamide], the inhibition at 0.1 µM was 4.6% in experiment [1] and 69.4% in experiment [2] (test compound 0.1 uM). The inhibition at 1 µM was determined as 17.4% in experiment [1] (test compound 1 uM) and 88.2% in experiment [2] (test compound 1 uM).

In the case of `CS(=O)(=O)CCn1cc2cc(NC(=O)c3cccc(S(=O)(=O)N4CCOCC4)c3)c(N3CCOCC3)cc2n1` [Example 14, N-(2-(2-(methylsulfonyl)ethyl)-6-morpholino-2H-indazol-5-yl)-3-(morpholinosulfonyl)benzamide], the results for the inhibition at 1 µM in experiment [1] (test compound 1 uM) and in experiment [2] (test compound 1 uM) were 0% and 35.6%, respectively. The inhibition at 0.1 µM in experiment [2] (test compound 0.1 uM) is 21.1%.

For `CC(C)(O)CCn1cc2cc(NC(=O)c3cccc([N+](=O)[O-])c3)cc(-c3ccoc3)c2n1` [Example 16, N-(7-(furan-3-yl)-2-(3-hydroxy-3-methylbutyl)-2H-indazol-5-yl)-3-nitrobenzamide], the inhibition at 1 µM in experiment [1] (test compound 1 uM) worked out at 17.2%; in experiment [2] (test compound 1 uM) it was 71%. The inhibition at 0.1 µM in experiment [2] (test compound 0.1 uM) was 48.8%.

With `CC(C)(O)CCn1cc2cc(NC(=O)c3cccc(S(N)(=O)=O)c3)c(-c3ccc(CN4CCOCC4)cc3)cc2n1` [Example 39, N-(2-(3-hydroxy-3-methylbutyl)-6-(4-(morpholinomethyl)phenyl)-2H-indazol-5-yl)-3-sulfamoylbenzamide], the inhibition at 0.1 µM in experiment [1] was 23%; in experiment [2] (test compound 0.1 uM) it was 69.7%. Further, the inhibition at 1 µM in experiment [1] (test compound 1 uM) was 35.2%.

Regarding `CC(C)(O)CCn1cc2cc(NC(=O)c3cccc([N+](=O)[O-])c3)c(N3CCC(C(C)(C)O)CC3)cc2n1` [Example 30, N-(2-(3-hydroxy-3-methylbutyl)-6-(4-(2-hydroxypropan-2-yl)piperidin-1-yl)-2H-indazol-5-yl)-3-nitrobenzamide], the values for the inhibition at 0.1 µM in experiment [1] and in experiment [2] (test compound 0.1 uM) were 8.6% and 82.8%, respectively. Further, in experiment [2], half-maximal inhibition (IC50) required 0.88 nM.

For `CC(C)(O)CCn1cc2cc(NC(=O)c3cccc(C(N)=O)c3)c(N3CCSCC3)cc2n1` [Example 33, N-(2-(3-hydroxy-3-methylbutyl)-6-thiomorpholino-2H-indazol-5-yl)isophthalamide], the inhibition at 0.1 µM in experiment [1] turned out to be 24%; in experiment [2] (test compound 0.1 uM), 71.3%. Moreover, the inhibition at 1 µM in experiment [1] (test compound 1 uM) amounted to 39.3%; in experiment [2] (test compound 1 uM), 95.6%. The IC50 in experiment [2] came out at 22.1 nM.

As for `CC(C)(O)CCn1cc2cc(NC(=O)c3cccc(S(N)(=O)=O)c3)c(N3CCC(O)CC3)cc2n1` [Example 31, N-(2-(3-hydroxy-3-methylbutyl)-6-(4-hydroxypiperidin-1-yl)-2H-indazol-5-yl)-3-sulfamoylbenzamide], the inhibition at 0.1 µM worked out at 30.6% in experiment [1] and 88% in experiment [2] (test compound 0.1 uM). In experiment [1] (test compound 1 uM), this compound showed an inhibition at 1 µM of 66.7%. This compound came in with an IC50 in experiment [2] of 13.4 nM.
